Assays:
[1] = xn = mol fraction of the nth substance listed; conditions: 100 kPa, Liquid; for mass density: Vibrating tube method; for viscosity: Falling or rolling sphere viscometry
[2] = refractive index (Na D-line) (dimensionless); xn = mol fraction of the nth substance listed; conditions: 298.15 K, 100 kPa, Liquid, Standard Abbe refractometry
[3] = excess molar enthalpy (molar enthalpy of mixing); xn = mol fraction of the nth substance listed; conditions: 100 kPa, Liquid, Flow calorimetry

CCn1cc[n+](C)c1.N#C[C-](C#N)C#N [1-ethyl-3-methyl-1H-imidazolium tricyanomethanide] + O
Conditions | excess molar enthalpy, [3] [kJ/mol] | mass density, [1] [kg/m3] | viscosity, [1] [mPa·s]
288.15 K, x1 = 0.000486 | 0.00516 | 999.748 | –
288.15 K, x1 = 0.000971 | 0.0108 | 1000.38 | –
288.15 K, x1 = 0.001456 | 0.0165 | 1000.99 | –
288.15 K, x1 = 0.001941 | 0.0222 | 1001.57 | –
288.15 K, x1 = 0.002425 | 0.0279 | 1002.13 | –
288.15 K, x1 = 0.002908 | 0.0337 | 1002.68 | –
298.15 K, x1 = 0.000486 | 0.00598 | 997.586 | –
298.15 K, x1 = 0.000971 | 0.0124 | 998.133 | –
298.15 K, x1 = 0.001455 | 0.0188 | 998.652 | –
298.15 K, x1 = 0.00194 | 0.0252 | 999.158 | –
298.15 K, x1 = 0.002423 | 0.0316 | 999.648 | –
298.15 K, x1 = 0.002907 | 0.0379 | 1000.12 | –
298.15 K, x2 = 0 | – | 1081.38 | 14
298.15 K, x2 = 0.1084 | – | 1079.85 | 11.85
298.15 K, x2 = 0.2059 | – | 1078.28 | 10.11
298.15 K, x2 = 0.3058 | – | 1076.34 | 8.35
298.15 K, x2 = 0.4145 | – | 1073.8 | 7.05
298.15 K, x2 = 0.5128 | – | 1070.97 | 5.88
298.15 K, x2 = 0.6095 | – | 1067.4 | 4.89
298.15 K, x2 = 0.7065 | – | 1062.54 | 3.98
298.15 K, x2 = 0.789 | – | 1056.44 | 3.24
298.15 K, x2 = 0.9015 | – | 1040.72 | 2.16
298.15 K, x2 = 0.9513 | – | 1026.4 | 1.58
298.15 K, x2 = 0.9869 | – | 1008.32 | 1.07
308.15 K, x1 = 0.000485 | 0.00696 | 994.509 | –
308.15 K, x1 = 0.00097 | 0.0142 | 994.981 | –
308.15 K, x1 = 0.001455 | 0.0214 | 995.435 | –
308.15 K, x1 = 0.001939 | 0.0285 | 995.873 | –
308.15 K, x1 = 0.002423 | 0.0356 | 996.296 | –
308.15 K, x1 = 0.002906 | 0.0426 | 996.708 | –
318.15 K, x1 = 0.000485 | 0.0077 | 990.626 | –
318.15 K, x1 = 0.00097 | 0.0158 | 991.036 | –
318.15 K, x1 = 0.001455 | 0.0238 | 991.43 | –
318.15 K, x1 = 0.001939 | 0.0318 | 991.809 | –
318.15 K, x1 = 0.002422 | 0.0395 | 992.176 | –
318.15 K, x1 = 0.002905 | 0.0473 | 992.534 | –

[2]
Conditions | refractive index
x2 = 0 | 1.51227
x2 = 0.1084 | 1.50965
x2 = 0.2059 | 1.50681
x2 = 0.3058 | 1.50438
x2 = 0.4145 | 1.49961
x2 = 0.5128 | 1.49477
x2 = 0.6095 | 1.487
x2 = 0.7065 | 1.4765
x2 = 0.789 | 1.46324
x2 = 0.9015 | 1.42697
x2 = 0.9513 | 1.39433
x2 = 0.9869 | 1.35455

Source: the NIST ThermoML archive (doi:10.1016/j.jct.2015.05.011)
